Values quoted from earlier work as cited in patent publication US4764376A, “Method of inhibiting aromatase” (Eli Lilly and Company, priority 1984, dated 1988).

Tested on: breast cancer
Details: known aromatase inhibitors; result in words

Row | Compound | beneficial effect in treatment of breast cancer
1 | CCC1(c2ccc(N)cc2)CCC(=O)NC1=O (centres unmarked) [aminoglutethimide] | beneficial effect
2 | C[C@]12C=CC(=O)C=C1CC[C@@H]1[C@@H]2CC[C@]2(C)OC(=O)CC[C@@H]12 [testolactone] | beneficial effect
